In US9458102B2 (priority 2011, dated 2016):
Like-named read-outs stand apart in the source and are kept apart here.

Legend:
[1] = target: heteromeric rod CNG channels consisting of CNGA1 and CNGB1 subunits (Bos taurus, UniProt Q00194+Q28181); experiment: biochemical; assay type: cell-based; conditions: 2 mM cGMP; for voltage dependence of block: +50 vs −50 mV
Procedure: Currents were elicited by a voltage step protocol from 0 to −50 to +50 mV (See FIG. 1) in the presence of 2 mM cGMP or 2 mM cGMP and compound (5 μM). Time scale is shown in the lower left-hand corner of the panel and FIG. 1, and the zero current level is indicated by the dotted line.
The solid line indicates the fit of the equation for block at a single binding site.
Time scale is shown in the lower left-hand corner of the panel and FIG. 1, and the zero current level is indicated by the dotted line. […] Solid line indicates the fit of the equation for block at a single binding site.
The effectiveness of retinal rod CNG channel current block by the disclosed compounds was tested in Xenopus oocyte preparations. Excised, inside-out patches pulled from oocytes expressed heteromeric rod CNG channels consisting of CNGA1 and CNGB1 subunits. […] CNG channel currents were elicited by a voltage step protocol to −50 and +50 mV (FIG. 1). The apparent KD value at each membrane potential was estimated first by determining I+B and I−B at steady state, where I+B is the current in the presence of blocker and I−B is current in the absence of blocker, for different blocker concentrations ([B]).
Ovaries were surgically removed from adult Xenopus laevis females (Xenopus Express; Brooksville, Fla.) anesthetized with ice-cold 0.1% tricaine and 0.1% NaHCO3 solution. Oocytes were chemically released from ovarian follicles in Ca^2+-free Barth's solution (88 mM NaCl, 1 mM KCl, 2.4 mM NaHCO3, 0.82 mM MgSO4, 7.5 mM Tris, 2.5 mM sodium pyruvate, 100 U/mL penicillin, and 100 μg/mL streptomycin, pH 7.4) containing 0.1 U/mL Liberase Blendzymes (Roche, Indianapolis, Ind.). Stages IV and V oocytes were visually sorted and stored in ND-96 (96 mM NaCl, 2 mM KCl, 1.8 mM CaCl2, 1 mM MgCl2, 5 mM HEPES, 2.5 mM sodium pyruvate, 100 U/mL penicillin, and 100 μg/mL streptomycin, pH 7.4) at 16° C. Oocytes were co-injected the following day with 33 ng of CNGA1 and 67 ng of CNGB1 cRNA […] synthesized from linearized pGEM-HE expression vectors containing the channel subunit cDNA sequence (Strassmaier T & Karpen J, J Med Chem 50, 4186-4194, (2007), incorporated by reference herein) using T7 mMESSAGE mMACHINE® (Ambion, Austin, Tex.). Injected oocytes were incubated at 18° C. the first day and 16° C. for the remaining days.
(§1) Recordings from inside-out excised patches were made 3-7 days after oocyte injection on an Axopatch 1D® amplifier (Axon Instruments, Foster City, Calif.). Briefly, oocyte vitelline membranes were removed in solution containing 200 mM K aspartate, 20 mM KCl, 1 mM MgCl2, 10 mM EGTA, 10 mM HEPES, pH 7.4. Oocytes were placed in a recording chamber in a solution containing 130 mM NaCl, 2 mM HEPES, 0.02 mM EDTA, 1 mM EGTA, pH 7.6, and borosilicate glass electrodes (1-3 MΩ) were filled with identical solution. Macroscopic currents were filtered at 1 kHz and sampled at 2 kHz using pCLAMP 8.0® software (Axon Instruments). Channels were either fully activated with 2 mM or partially activated with 50 and 100 μM cGMP. […] Glass syringes and Teflon tubing were used to minimize the binding of compounds to surfaces; concentrations passing through the perfusion system were verified by absorbance.

[2] = test system: heteromeric rod CNG channels consisting of CNGA1 and CNGB1 subunits; experiment: CNG channel block at subsaturating cGMP (state dependence of block); assay type: cell-based; conditions: subsaturating cGMP (50 or 100 μM), +50 mV, normalized to KD at 2 mM cGMP
Source text: KD values at saturating cGMP were corrected for ion accumulation. Solid lines indicate simulations for exclusive closed channel blockers, using KD/KDsat=(1−Fsat)/(1−FsatI/Imax), where Fsat is the estimated fraction of open heteromeric rod channels in saturating cGMP assuming Fsat=0.3 (a), 0.56 (b), or 0.78 (c). The dotted line is a simulation for a blocker with no preference for state, or KD/KDsat=1. The dashed line is a simulation for an exclusive open channel blocker, using KD/KDsat=(I/Imax)^−1.
The solid lines in FIG. 4 marked a, b, and c represent the expected relationship between KD and the fraction of closed channels for an exclusive closed channel blocker. Each of a, b, and c uses one estimate for the probability of closed heteromeric retinal rod channels at saturating cGMP. The simulations are described in the following references: Matthews G et al, J Physiol 403, 389-405 (1988); Taylor W R & Baylor D A, J Physiol 483 567-582 (1995); and Bucossi G et al, Biophys J 72, 1165-1181 (1997), all of which are incorporated by reference herein. The dotted line represents a simulation of a blocker with no preference as to conformational of the channel. The dashed line represents a simulation for an exclusive open channel blocker.
as §1, with “absorbance. Current traces were digitally filtered at 300 Hz (Gaussian) and averaged using Clampfit 8.2® software. Currents in the absence of cGMP were subtracted from all currents analyzed. KD values were determined and expressed as the mean±SD.” for “absorbance.”

[3] = +50 mV, concentration series of FIG. 4 / FIG. 5, read-out: KD values determined from the fit of the equation
[4] = Table 1, +50 mV, mean±SD, not corrected for ion accumulation, read-out: KD(+50)
[5] = −50 mV, concentration series of FIG. 4 / FIG. 5, read-out: KD values determined from the fit of the equation
[6] = Table 1, −50 mV, mean±SD, not corrected for ion accumulation, read-out: KD(−50)

Chain of heteromeric rod CNG channels consisting of CNGA1 and CNGB1 subunits (Bos taurus, UniProt Q00194+Q28181) (Q00194 whole entry): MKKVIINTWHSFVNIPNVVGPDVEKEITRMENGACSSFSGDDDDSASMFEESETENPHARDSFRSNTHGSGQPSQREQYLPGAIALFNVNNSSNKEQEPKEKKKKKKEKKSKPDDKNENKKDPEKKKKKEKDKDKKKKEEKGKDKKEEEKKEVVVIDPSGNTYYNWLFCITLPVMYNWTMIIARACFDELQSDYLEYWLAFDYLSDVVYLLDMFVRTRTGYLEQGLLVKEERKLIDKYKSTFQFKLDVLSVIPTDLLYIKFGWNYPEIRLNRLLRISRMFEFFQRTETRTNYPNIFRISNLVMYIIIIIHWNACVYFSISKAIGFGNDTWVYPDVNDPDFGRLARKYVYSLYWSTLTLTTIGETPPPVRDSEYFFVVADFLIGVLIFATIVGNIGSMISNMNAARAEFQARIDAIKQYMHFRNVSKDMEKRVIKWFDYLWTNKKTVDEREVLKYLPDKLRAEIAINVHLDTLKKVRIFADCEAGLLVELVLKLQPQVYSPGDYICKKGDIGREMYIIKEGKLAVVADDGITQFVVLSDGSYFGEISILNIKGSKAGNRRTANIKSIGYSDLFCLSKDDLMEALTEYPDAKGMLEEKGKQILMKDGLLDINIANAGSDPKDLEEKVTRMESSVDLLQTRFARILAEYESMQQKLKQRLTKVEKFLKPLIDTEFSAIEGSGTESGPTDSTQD
Chain of heteromeric rod CNG channels consisting of CNGA1 and CNGB1 subunits (Bos taurus, UniProt Q00194+Q28181) (Q28181 whole entry): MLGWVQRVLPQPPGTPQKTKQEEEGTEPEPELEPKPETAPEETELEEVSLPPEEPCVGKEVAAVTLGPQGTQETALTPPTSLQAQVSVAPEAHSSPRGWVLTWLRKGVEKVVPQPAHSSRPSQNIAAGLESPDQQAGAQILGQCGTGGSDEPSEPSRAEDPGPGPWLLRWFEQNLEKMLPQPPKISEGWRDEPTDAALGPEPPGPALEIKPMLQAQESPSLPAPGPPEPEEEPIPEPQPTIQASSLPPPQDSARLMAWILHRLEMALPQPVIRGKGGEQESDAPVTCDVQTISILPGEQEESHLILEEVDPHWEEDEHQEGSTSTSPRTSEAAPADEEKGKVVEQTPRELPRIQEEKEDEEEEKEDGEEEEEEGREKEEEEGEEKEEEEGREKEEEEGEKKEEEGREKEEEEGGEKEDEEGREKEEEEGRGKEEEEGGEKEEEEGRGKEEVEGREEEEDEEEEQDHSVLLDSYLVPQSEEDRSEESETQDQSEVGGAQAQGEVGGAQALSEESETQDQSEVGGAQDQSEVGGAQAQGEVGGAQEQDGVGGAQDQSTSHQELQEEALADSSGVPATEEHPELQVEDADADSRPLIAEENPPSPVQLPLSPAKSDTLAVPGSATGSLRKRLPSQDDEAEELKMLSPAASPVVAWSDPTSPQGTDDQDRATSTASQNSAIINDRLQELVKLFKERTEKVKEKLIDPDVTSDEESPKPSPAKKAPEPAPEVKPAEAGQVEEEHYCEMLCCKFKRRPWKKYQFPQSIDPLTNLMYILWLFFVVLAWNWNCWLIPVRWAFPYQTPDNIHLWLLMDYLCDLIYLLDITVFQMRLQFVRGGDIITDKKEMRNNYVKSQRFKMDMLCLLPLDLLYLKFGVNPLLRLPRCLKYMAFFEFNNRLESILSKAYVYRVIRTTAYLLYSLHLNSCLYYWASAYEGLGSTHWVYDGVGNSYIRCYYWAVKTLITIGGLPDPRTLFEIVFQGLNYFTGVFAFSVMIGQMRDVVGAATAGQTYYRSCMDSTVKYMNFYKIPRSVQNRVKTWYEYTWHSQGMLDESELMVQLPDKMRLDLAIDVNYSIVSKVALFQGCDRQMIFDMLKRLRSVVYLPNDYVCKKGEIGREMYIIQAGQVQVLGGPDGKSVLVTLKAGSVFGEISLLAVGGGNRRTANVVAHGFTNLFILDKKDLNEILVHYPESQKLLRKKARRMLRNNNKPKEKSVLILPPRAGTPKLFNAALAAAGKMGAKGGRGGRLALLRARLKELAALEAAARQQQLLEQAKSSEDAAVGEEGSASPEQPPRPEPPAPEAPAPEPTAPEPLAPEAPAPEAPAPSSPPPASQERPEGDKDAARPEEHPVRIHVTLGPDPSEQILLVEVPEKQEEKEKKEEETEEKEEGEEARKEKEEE

Structure (SMILES) | voltage dependence of block [1] | Kd [1, 3] | Kd [1, 4] | Kd [1, 5] | state dependence of block (KD vs fraction of closed channels) [2] | Kd [1, 6] | Kd ([1]; octyl series table, +50 mV, read-out: KD(+50)) | Kd ([1]; octyl series table, −50 mV, read-out: KD(−50))
CCCCCCCCNc1ccc(C(=S)NCCN(C)C)cc1 [Compound 9, 4-(Octylamino)-N-(2-(dimethylamino)ethyl)benzothioamide] | appreciably less voltage dependent than compound 1, 6, and 8 | 1.3 µM | 0.7 ± 0.5 µM | 1.8 µM | better fit the results expected of a closed channel blocker | – | – | –
CCCCNc1ccc(C(=S)NCCN(C)C)cc1 [Compound 8, 4-(Butylamino)-N-(2-(dimethylamino)ethyl)benzothioamide] | – | 0.5 µM | 0.6 ± 0.3 µM | 3.7 µM | better fit the results expected of a closed channel blocker | 3.9 ± 1.8 µM | – | –
CCCCCCCCNc1ccc(C(=O)OCCN(C)C)cc1 [Compound 5, 2-(Dimethylamino)ethyl 4-(Octylamino)benzoate, reference compound] | appreciably less voltage dependent than compound 1, 6, and 8 | 1.5 µM | 1 ± 0.6 µM | 1.8 µM | better fit the results expected of a closed channel blocker | 2.4 ± 1.4 µM | 0.8 ± 0.5 µM | 1.72 ± 1.38 µM
